Tested on: hepatitis C virus replicon NK-R2AN in Huh-7 cells
Experiment: microbe, parasite or virus in culture
Assay type: cell-based
Details: Huh-7 cells containing replicon NK-R2AN, 48 hours, renilla luciferase activity relative to protein amount, read-out: HCV replicon inhibitory activity (EC50)

| SMILES | EC50 |
| --- | --- |
| Cc1sc2nc(N3CCN(C(=O)c4ccccn4)CC3)nc(Nc3ccc(N4CCOCC4)cc3)c2c1C [Example 1, 4-[5,6-dimethyl-4-(4-morpholin-4-yl-phenylamino)-thieno[2,3-d]pyrimidin-2-yl]-piperazin-1-yl-pyridin-2-yl-methanone] | 680 nM |
| Cc1sc2nc(N3CCN(C(=O)c4cccnc4)CC3)nc(Nc3ccc(N4CCOCC4)cc3)c2c1C [Example 2, 4-[5,6-dimethyl-4-(4-morpholin-4-yl-phenylamino)-thieno[2,3-d]pyrimidin-2-yl]-piperazin-1-yl-pyridin-3-yl-methanone] | 450 nM |
| Cc1sc2nc(N3CCN(C(=O)c4ccncc4)CC3)nc(Nc3ccc(N4CCOCC4)cc3)c2c1C [Example 3, 4-[5,6-dimethyl-4-(4-morpholin-4-yl-phenylamino)-thieno[2,3-d]pyrimidin-2-yl]-piperazin-1-yl-pyridin-4-yl-methanone] | 480 nM |
| Cc1sc2nc(N3CCN(C(=O)c4ccccn4)CC3)nc(Nc3ccc(N4CCOCC4)nc3)c2c1C [Example 4, 4-[5,6-dimethyl-4-(6-morpholinopyridin-3-ylamino)-thieno[2,3-d]pyrimidin-2-yl]-piperazin-1-yl-pyridin-2-yl-methanone] | 710 nM |
| Cc1sc2nc(N3CCN(C(=O)c4cccnc4)CC3)nc(Nc3ccc(N4CCOCC4)nc3)c2c1C [Example 5, 4-[5,6-dimethyl-4-(6-morpholinopyridin-3-ylamino)-thieno[2,3-d]pyrimidin-2-yl]-piperazin-1-yl-pyridin-3-yl-methanone] | 510 nM |

— patent publication US7816351B2, “5,6-dimethylthieno[2,3-di] pyrimidine derivatives, the preparation method thereof and the pharmaceutical composition comprising the same for anti-virus” (Equispharm Co., Ltd, priority 2005, dated 2010)
